According to patent US11564908B2, “Beta-lactam compounds or salts thereof for use in long-acting prevention or treatment of a glucose metabolism disorder” (GLYCOLYSIS BIOMED CO., LTD., priority 2019, dated 2023):
Marks after values point to notes of the source that are not given here.

Assays:
[1] = tested on: db/db mice; assay: Plasma biochemical parameters (AST, ALT, BUN, Cr, HbA1c); settings: daily 3 weeks then stopped, DMH 0.41, MER 0.205, CEFT 0.82, PEN 1.473, TIE 0.41 mg/g bw i.p., MET 0.3 mg/g bw oral, week 9
Description: Inflammatory markers such as serum aspartate aminotransferase (AST), alanine aminotransferase (ALT), blood urea nitrogen (BUN), creatinine (Cr), and hemoglobin A1c (HbA1c) were measured using a BMC-Hitachi 717 chemistry auto analyzer.

[2] = tested on: db/db mice; assay: Oral glucose tolerance test (OGTT); format: in vivo; settings: for OGTT glucose concentration versus G8 group (FIG. 6A): week 6 (medication stopped for 3 weeks), time points of 30 min and 60 min; for OGTT glucose concentration versus G8 group (FIG. 6B): week 9 (medication stopped for 6 weeks), time points of 30 min, 60 min and 120 min
Description: Blood was sampled from the tail vein, and FPG levels were measured and recorded as the basic blood glucose levels. […] The total area under the curve (AUC) in OGTT was plotted and calculated by the Area Under Coordinates Program (StatsToDo Server, Department of Obstetrics and Gynecology, Chinese University of Hong Kong).

[3] = tested on: db/db mice; assay: Food and water intake of mice; format: in vivo; settings: daily 3 weeks then stopped, DMH 0.41, MER 0.205, CEFT 0.82, PEN 1.473, TIE 0.41 mg/g bw i.p., MET 0.3 mg/g bw oral, average
Description: Four to five weeks old db/db mice (BKS.Cg-Dock7^m+/+Lepr^db/JNarl) and m/m mice (BKS.Cg-Dock7^m+/Dock7^m+) were obtained from National Laboratory Animal Center ([…], Taiwan). […] PMI Nutrition International, Brentwood, Mo.) and water ad libitum. […] The mouse body weight (bw) and the amounts of water and food intake were recorded weekly for the entire study period.

[4] = tested on: db/db mice; assay: Histopathological assessment (H&E stain); format: in vivo
From the text: For histopathological assessment, all mice were sacrificed by 95% CO2 asphyxiation at the end of the study period. Their brain, liver, kidney, pancreas, and epididymal fat pads were removed, fixed in 10% phosphate-buffered formalin, and embedded in paraffin. Tissues embedded in paraffin were cut into 4-μm-thick sections that were then stained with hematoxylin-eosin (i.e., H&E stain).

[5] = 0.41 mg/g bw/day i.p. for 3 weeks (Example 1)

SMILES | BUN [1] | OGTT glucose concentration versus G8 group (FIG. 6A) [2] | OGTT glucose concentration versus G8 group (FIG. 6B) [2] | Kidney histological changes (tubular degeneration and necrosis, mineralization deposition, hyaline cast) ([4]; Example 2, end of study) | other results
C[C@@H](O)[C@H]1C(=O)N2C(C(=O)O)=C(S[C@@H]3CN[C@H](C(=O)N(C)C)C3)[C@H](C)[C@H]12 [MER, meropenem hydrate] | 43 ± 2^bd mg/dL | – | – | – | ALT [1]: 89 ± 5^bcd U/L
CC1(C)S[C@@H]2[C@H](NC(=O)Cc3ccccc3)C(=O)N2[C@H]1C(=O)O [PEN, penicillin G] | – | significantly lower than that in the G8 group | significantly lower than that in the G8 group | – | Diet intake [3]: 4.0 ± 0.9^a g/mice/day
C[C@@H](O)[C@H]1C(=O)N2C(C(=O)O)=C(S[C@@H]3CN[C@H](C(=O)Nc4cccc(C(=O)O)c4)C3)[C@H](C)[C@H]12 [DMH, ertapenem] | 44 ± 2^d mg/dL | significantly lower than that in the G8 group | significantly lower than that in the G8 group | more apparent in metformin-treated mice than in ertapenem-treated mice | Injuries in brain, liver, kidney, pancreas and epididymal fat pads [4, 5]: no significant injuries; Severity and incidence of liver glycogen storage versus DB group [4, 5]: slighter than that in the DB group; Injuries in liver, kidney, pancreas and epididymal fat pads ([4]; Example 2, end of study): No significant injuries; OGTT glucose concentration versus DB group (FIG. 1) ([2]; 0.41 mg/g bw/day i.p., week 3, time points of 90 min and 120 min): significantly lower than that in the DB group; Effect on oral glucose tolerance after treatment stopped ([2]; treatment had been stopped for 10 weeks (Example 2)): effectively increased the oral glucose tolerance
CN(C)C(=N)N=C(N)N [Met, metformin] | – | – | – | more apparent in metformin-treated mice than in ertapenem-treated mice | –
